Data reported in ChEMBL document CHEMBL1143037, “Discovery of +(2-{4-[2-(5,6,7,8-tetrahydro-1,8-naphthyridin-2-yl)ethoxy]phenyl}-cyclopropyl)acetic acid as potent and selective alphavbeta3 inhibitor: design, synthesis, and optimization” (Bioorg Med Chem, 2007).

What was measured:
[1] = molecular target: T1, Integrin alpha-V/beta-3 (Homo sapiens, UniProt P05106+P06756); experiment: Inhibition of human integrin alpha-v-beta-3 receptor by solid phase receptor assay; format: protein-complex assay
[2] = molecular target: T1, Integrin alpha-V/beta-3; experiment: Inhibition of human integrin alpha-v-beta-3 receptor expressed in HEK293 cells; format: cell-based
[3] = molecular target: Integrin alpha-V/beta-6 (Homo sapiens, UniProt P06756+P18564); experiment: Inhibition of integrin alpha-beta-6 receptor expressed in HT29 cells; format: cell-based, HT-29
[4] = (§1) Bioavailability in Sprague-Dawley rat; format: ADME, organism-based; settings: Sprague-Dawley, in vivo
[5] = (§2) Half life in Sprague-Dawley rat; format: ADME, organism-based; settings: Sprague-Dawley, in vivo
[6] = (§3) Cmax in Sprague-Dawley rat; format: ADME, organism-based; settings: Sprague-Dawley, in vivo
[7] = Clearance in Sprague-Dawley rat; format: ADME, organism-based; settings: in vivo
[8] = (§4) Volume of distribution in Sprague-Dawley rat; format: ADME, organism-based; settings: Sprague-Dawley, in vivo, read-out: Vdss
[9] = molecular target: Integrin alpha-V/beta-1 (Homo sapiens, UniProt P05556+P06756); experiment: Inhibition of integrin alphavbeta1 receptor expressed in HEK293 cells; format: cell-based
[10] = AUC in Swiss-Webster mouse at 20 mg/kg, po; format: ADME, organism-based; design: dose 20 mg/kg, route oral; settings: plasma
[11] = AUC in Swiss-Webster mouse at 20 mg/kg, iv; format: ADME, organism-based; design: dose 20 mg/kg, route intravenous; settings: plasma
[12] = Bioavailability in Swiss-Webster mouse at 2 mg/kg; format: ADME, organism-based; settings: in vivo
[13] = Half life in Swiss-Webster mouse at 2 mg/kg; format: ADME, organism-based; design: dose 2 mg/kg; settings: in vivo
[14] = molecular target: Integrin alpha-V/beta-5 (Homo sapiens, UniProt P06756+P18084); experiment: Inhibition of integrin alpha-v-beta-5 receptor expressed in HEK293 cells; format: cell-based
[15] = Bioavailability in Swiss-Webster mouse at 20 mg/kg; format: ADME, organism-based; settings: in vivo
[16] = Half life in Swiss-Webster mouse at 20 mg/kg; format: ADME, organism-based; design: dose 20 mg/kg; settings: in vivo
[17] = species on record: Rattus norvegicus; experiment: as §1; format: ADME, organism-based; settings: in vivo
[18] = species on record: Rattus norvegicus; experiment: as §2; format: ADME, organism-based; settings: in vivo
[19] = species on record: Rattus norvegicus; experiment: as §4; format: ADME, organism-based; settings: in vivo
[20] = species on record: Rattus norvegicus; experiment: as §3; format: ADME, organism-based; settings: in vivo

Sequence of Integrin alpha-V/beta-1 (P05556 21-798 limits assumed): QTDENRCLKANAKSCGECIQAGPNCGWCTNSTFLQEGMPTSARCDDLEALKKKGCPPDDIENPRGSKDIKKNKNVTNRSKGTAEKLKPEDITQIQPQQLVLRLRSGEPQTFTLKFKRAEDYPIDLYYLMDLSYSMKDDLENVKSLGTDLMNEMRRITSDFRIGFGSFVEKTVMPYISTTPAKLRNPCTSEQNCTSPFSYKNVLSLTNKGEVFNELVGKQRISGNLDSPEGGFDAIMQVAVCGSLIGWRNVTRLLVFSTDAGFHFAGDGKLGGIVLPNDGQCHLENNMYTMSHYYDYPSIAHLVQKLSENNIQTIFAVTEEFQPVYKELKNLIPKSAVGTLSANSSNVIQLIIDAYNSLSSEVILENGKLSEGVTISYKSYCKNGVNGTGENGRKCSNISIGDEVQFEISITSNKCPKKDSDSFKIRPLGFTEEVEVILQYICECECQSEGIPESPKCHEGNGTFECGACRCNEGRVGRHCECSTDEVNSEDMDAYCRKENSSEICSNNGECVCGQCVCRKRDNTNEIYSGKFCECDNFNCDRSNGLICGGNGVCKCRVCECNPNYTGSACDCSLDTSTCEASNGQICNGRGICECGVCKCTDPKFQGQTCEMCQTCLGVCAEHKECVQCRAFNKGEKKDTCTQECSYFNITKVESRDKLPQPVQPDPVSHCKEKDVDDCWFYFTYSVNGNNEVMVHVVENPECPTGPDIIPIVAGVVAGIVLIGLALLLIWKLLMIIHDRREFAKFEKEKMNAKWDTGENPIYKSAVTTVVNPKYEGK
Sequence of Integrin alpha-V/beta-1 (P06756 31-889 limits assumed): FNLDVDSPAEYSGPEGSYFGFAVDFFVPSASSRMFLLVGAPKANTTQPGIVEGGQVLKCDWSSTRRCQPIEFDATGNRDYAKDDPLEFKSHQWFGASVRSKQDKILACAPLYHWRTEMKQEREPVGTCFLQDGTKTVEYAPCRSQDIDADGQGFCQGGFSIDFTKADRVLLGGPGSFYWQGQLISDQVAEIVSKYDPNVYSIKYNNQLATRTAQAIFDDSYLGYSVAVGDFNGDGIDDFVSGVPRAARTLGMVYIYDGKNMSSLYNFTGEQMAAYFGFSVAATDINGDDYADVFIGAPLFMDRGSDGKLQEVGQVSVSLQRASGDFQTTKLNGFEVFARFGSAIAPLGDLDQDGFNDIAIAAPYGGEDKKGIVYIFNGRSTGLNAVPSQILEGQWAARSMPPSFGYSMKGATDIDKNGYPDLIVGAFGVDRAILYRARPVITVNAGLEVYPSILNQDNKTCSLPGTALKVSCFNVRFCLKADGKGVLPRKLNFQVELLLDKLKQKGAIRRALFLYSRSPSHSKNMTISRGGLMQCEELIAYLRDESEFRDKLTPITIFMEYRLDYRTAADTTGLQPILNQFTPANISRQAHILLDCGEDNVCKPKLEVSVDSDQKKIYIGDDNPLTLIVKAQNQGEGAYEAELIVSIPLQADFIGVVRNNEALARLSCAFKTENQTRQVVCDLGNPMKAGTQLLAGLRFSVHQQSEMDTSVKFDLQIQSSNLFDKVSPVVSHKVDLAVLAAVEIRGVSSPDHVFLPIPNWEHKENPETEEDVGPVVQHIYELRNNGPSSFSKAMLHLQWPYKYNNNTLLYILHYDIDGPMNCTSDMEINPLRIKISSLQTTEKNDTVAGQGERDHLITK
Sequence of Integrin alpha-V/beta-1 (P06756 891-1048 limits assumed): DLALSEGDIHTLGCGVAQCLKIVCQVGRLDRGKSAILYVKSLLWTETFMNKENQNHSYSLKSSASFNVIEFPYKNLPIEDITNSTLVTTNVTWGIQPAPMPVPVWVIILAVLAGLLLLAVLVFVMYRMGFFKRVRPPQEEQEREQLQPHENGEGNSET
T1 sequence (P05106 27-788 limits assumed): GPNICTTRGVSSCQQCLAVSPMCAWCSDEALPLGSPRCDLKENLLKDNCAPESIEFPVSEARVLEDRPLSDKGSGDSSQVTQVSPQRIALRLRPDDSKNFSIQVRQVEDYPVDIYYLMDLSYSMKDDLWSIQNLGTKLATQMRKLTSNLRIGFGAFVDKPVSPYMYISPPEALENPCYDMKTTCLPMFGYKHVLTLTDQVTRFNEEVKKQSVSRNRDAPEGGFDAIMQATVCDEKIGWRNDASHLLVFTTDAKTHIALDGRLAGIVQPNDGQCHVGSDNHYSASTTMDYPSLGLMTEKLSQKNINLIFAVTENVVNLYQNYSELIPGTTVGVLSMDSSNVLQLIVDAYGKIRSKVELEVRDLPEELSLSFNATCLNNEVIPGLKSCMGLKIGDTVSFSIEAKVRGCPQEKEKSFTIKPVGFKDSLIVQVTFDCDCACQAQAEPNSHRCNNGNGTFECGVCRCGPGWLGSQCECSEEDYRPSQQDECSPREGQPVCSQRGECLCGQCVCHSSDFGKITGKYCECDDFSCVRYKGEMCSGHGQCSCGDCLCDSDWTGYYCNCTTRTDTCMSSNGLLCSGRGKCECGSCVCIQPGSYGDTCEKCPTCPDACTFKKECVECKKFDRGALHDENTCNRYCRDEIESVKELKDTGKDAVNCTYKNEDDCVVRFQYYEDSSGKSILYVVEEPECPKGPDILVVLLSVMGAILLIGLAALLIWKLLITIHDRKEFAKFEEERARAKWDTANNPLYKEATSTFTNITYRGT
T1 sequence (P06756 31-889 limits assumed): as the sequence (P06756 31-889 limits assumed) above
T1 sequence (P06756 891-1048 limits assumed): as the sequence (P06756 891-1048 limits assumed) above
Sequence of Integrin alpha-V/beta-6 (P06756 31-889 limits assumed): as the sequence (P06756 31-889 limits assumed) above
Sequence of Integrin alpha-V/beta-6 (P06756 891-1048 limits assumed): as the sequence (P06756 891-1048 limits assumed) above
Sequence of Integrin alpha-V/beta-6 (P18564 22-788 limits assumed): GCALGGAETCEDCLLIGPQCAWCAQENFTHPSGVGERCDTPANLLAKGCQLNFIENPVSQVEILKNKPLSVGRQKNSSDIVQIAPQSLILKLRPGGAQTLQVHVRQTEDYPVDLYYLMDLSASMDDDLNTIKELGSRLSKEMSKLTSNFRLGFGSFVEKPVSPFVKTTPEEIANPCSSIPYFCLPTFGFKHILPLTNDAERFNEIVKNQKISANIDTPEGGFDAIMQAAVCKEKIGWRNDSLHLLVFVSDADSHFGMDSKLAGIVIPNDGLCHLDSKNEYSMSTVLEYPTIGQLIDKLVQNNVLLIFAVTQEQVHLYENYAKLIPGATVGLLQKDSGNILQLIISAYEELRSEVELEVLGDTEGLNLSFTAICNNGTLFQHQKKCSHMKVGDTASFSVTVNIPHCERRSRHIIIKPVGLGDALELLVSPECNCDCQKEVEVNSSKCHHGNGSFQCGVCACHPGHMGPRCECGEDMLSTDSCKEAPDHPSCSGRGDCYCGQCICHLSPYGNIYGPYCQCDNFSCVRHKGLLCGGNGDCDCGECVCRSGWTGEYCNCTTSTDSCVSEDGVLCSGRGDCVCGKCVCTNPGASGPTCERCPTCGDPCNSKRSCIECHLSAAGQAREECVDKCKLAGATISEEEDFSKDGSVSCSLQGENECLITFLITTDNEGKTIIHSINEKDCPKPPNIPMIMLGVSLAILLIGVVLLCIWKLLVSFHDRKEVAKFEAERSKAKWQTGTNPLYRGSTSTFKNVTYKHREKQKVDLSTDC
Sequence of Integrin alpha-V/beta-5 (P06756 31-889 limits assumed): as the sequence (P06756 31-889 limits assumed) above
Sequence of Integrin alpha-V/beta-5 (P06756 891-1048 limits assumed): as the sequence (P06756 891-1048 limits assumed) above
Sequence of Integrin alpha-V/beta-5 (P18084 24-799 limits assumed): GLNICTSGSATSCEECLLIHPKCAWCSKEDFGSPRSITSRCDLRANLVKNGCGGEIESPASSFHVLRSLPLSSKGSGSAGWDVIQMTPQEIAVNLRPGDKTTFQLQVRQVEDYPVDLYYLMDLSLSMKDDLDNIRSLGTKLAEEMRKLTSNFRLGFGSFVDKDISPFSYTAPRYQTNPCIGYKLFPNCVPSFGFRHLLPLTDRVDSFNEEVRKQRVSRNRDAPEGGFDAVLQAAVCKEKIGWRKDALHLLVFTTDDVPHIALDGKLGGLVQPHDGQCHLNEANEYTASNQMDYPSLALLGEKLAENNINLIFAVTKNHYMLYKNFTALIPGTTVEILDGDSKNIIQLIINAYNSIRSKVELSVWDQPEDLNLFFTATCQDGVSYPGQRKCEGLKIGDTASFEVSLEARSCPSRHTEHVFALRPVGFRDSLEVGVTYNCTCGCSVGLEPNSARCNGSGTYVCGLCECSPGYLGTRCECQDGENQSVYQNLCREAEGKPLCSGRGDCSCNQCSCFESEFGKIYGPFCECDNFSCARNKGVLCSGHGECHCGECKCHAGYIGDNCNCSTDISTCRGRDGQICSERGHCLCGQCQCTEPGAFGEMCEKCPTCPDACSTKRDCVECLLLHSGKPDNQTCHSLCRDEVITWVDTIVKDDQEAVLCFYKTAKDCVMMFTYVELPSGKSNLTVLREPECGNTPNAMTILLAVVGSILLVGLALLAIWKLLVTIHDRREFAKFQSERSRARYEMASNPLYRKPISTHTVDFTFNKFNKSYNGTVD

| Structure (SMILES) | IC50 [1] | IC50 [2] | IC50 [3] | IC50 [9] | IC50 [14] | other results |
| --- | --- | --- | --- | --- | --- | --- |
| O=C(O)CC1(c2ccccc2)CC1c1ccc(OCCc2ccc3c(n2)NCCC3)cc1 (stereo unspecified) | 2700 nM | – | – | – | – | – |
| CC1(c2ccc(OCCc3ccc4c(n3)NCCC4)cc2)CC1CC(=O)O (stereo unspecified) | 36 nM | – | – | – | – | – |
| O=C(O)CC1CC1c1ccc(OCCCNc2ccccn2)cc1 (stereo unspecified) | 19 nM | 42 nM | – | 234 nM | – | AUC [10]: 18300 ng·h/mL; AUC [11]: 14200 ng·h/mL; bioavailability [12]: 79%; half-life [13]: 2.3 h |
| O=C(O)CC1CC1c1ccc(OCCc2ccc3c(n2)NCCC3)nc1 (stereo unspecified) | 1900 nM | – | 10000 nM | – | – | – |
| O=C(O)CC1CC1c1cccc(OCCc2ccc3c(n2)NCCC3)c1 (stereo unspecified) | 776 nM | 205 nM | 9600 nM | – | – | – |
| O=C(O)CCC1CC1c1ccc(OCc2ccc3c(n2)NCCC3)cc1 (stereo unspecified) | 1000 nM | – | – | – | – | – |
| O=C(O)CCC1CC1c1cccc(OCCc2ccc3c(n2)NCCC3)c1 (stereo unspecified) | 954 nM | 525 nM | – | – | – | – |
| CC(CC(=O)O)Cc1ccc(OCCCNc2ccccn2)cc1 (stereo unspecified) | 21 nM | 51 nM | 4360 nM | 102 nM | 33 nM | AUC [10]: 195000 ng·h/mL; AUC [11]: 106000 ng·h/mL; bioavailability [15]: 92%; half-life [16]: 4.1 h |
| O=C(O)CCC1CC1c1ccc(OCCc2ccc3c(n2)NCCC3)nc1 (stereo unspecified) | 472 nM | 156 nM | – | – | – | – |
| CC1(C)C(CC(=O)O)C1c1ccc(OCCc2ccc3c(n2)NCCC3)cc1 (single isomer, unassigned; (-)) | 42 nM | – | 10000 nM | – | – | – |

Compounds with a lower IC50 [1], results first:

| IC50 [1] | IC50 [2] | IC50 [3] | IC50 [9] | IC50 [14] | Structure (SMILES) | other results |
| --- | --- | --- | --- | --- | --- | --- |
| 1.6 nM | 1.5 nM | 4500 nM | – | – | O=C(O)CC1C(c2ccc(OCCc3ccc4c(n3)NCCC4)cc2)C1(Cl)Cl (stereo unspecified) | bioavailability [4]: 100%; half-life [5]: 4 h; Cmax [6]: 17400 ng/mL; clearance [7]: 2.2 mL/min/kg; Vd [8]: 0.493 L/kg |
| 1 nM | 0.9 nM | 9800 nM | – | 3 nM | O=C(O)CC1CC1c1ccc(OCCc2ccc3c(n2)NCCC3)c(O)c1 (stereo unspecified) | – |
| 0.5 nM | 11 nM | 3530 nM | 11 nM | 3 nM | O=C(O)CC1CC1c1ccc(OCCc2ccc3c(n2)NCCC3)c(F)c1 (stereo unspecified) | bioavailability [4]: 100%; half-life [5]: 3.7 h; Cmax [6]: 15000 ng/mL; clearance [7]: 5.8 mL/min/kg; Vd [8]: 0.864 L/kg |
| 7.4 nM | 7 nM | 20000 nM | – | – | CNc1cccc(CCOc2ccc(C3CC3CC(=O)O)cc2)n1 (stereo unspecified) | – |
| 0.5 nM | 2 nM | 25000 nM | 28 nM | – | O=C(O)CC(Cc1ccc(OCCCNc2ccccn2)cc1)c1cccnc1 (stereo unspecified) | AUC [10]: 300 ng·h/mL; AUC [11]: 200 ng·h/mL; bioavailability [12]: 100%; half-life [13]: 1.7 h |
| 8 nM | 29 nM | 19800 nM | 96 nM | 20 nM | O=C(O)CC(Cc1ccc(OCCCNc2ccccn2)cc1)c1ccccc1 (stereo unspecified) | AUC [10]: 2800 ng·h/mL; AUC [11]: 2300 ng·h/mL; bioavailability [12]: 100%; half-life [13]: 4.4 h |
| 3.3 nM | 1.7 nM | 4330 nM | – | 20 nM | O=C(O)CC1C(c2ccc(OCCc3ccc4c(n3)NCCC4)cc2)C1(Br)Br (stereo unspecified) | – |
| 2 nM | 10 nM | 10000 nM | – | – | O=C(O)CC1CC1c1ccc(OCCc2ccc3c(n2)NCCC3)c(F)c1F (stereo unspecified) | – |
| 12 nM | – | – | – | – | CC1(C)[C@H](c2ccc(OCCc3ccc4c(n3)NCCC4)cc2)[C@@H]1CC(=O)O (relative stereo) | – |
| 16 nM | 16 nM | 10000 nM | 297 nM | 33 nM | O=C(O)CC1CC1c1ccc(OCCc2ccc3c(n2)NCCC3)cc1 (single isomer, unassigned; (-)) | – |
| 5 nM | 3 nM | – | 64 nM | 4.4 nM | O=C(O)CC1CC1c1ccc(OCCc2ccc3c(n2)NCCC3)cc1 (stereo in doubt; 7) | AUC [10]: 398000 ng·h/mL; AUC [11]: 378000 ng·h/mL; bioavailability [12]: 62%; half-life [13]: 1.6 h; F [17]: 62%; t1/2 [18]: 1.6 h; Cmax [6]: 24500 ng/mL; Vdss [19]: 0.221 L/kg |
| 1.3 nM | 1.5 nM | 10000 nM | – | – | CC1(C)C(CC(=O)O)C1c1ccc(OCCc2ccc3c(n2)NCCC3)cc1 (stereo in doubt; 83) | t1/2 [18]: 3.5 h; Cmax [20]: 23500 ng/mL; Vdss [19]: 0.419 L/kg |
| 0.6 nM | 0.6 nM | 2570 nM | 6 nM | 1.4 nM | O=C(O)CC1CC1c1ccc(OCCc2ccc3c(n2)NCCC3)cc1 (stereo in doubt; (+)7) | F [17]: 100%; t1/2 [18]: 4 h; Cmax [20]: 14800 ng/mL; Vdss [19]: 0.915 L/kg |
| 0.4 nM | 0.4 nM | 1790 nM | – | 4 nM | CC1(C)C(CC(=O)O)C1c1ccc(OCCc2ccc3c(n2)NCCC3)cc1 (stereo in doubt; (+)83) | bioavailability [4]: 100%; half-life [5]: 5.1 h; Cmax [6]: 33000 ng/mL; clearance [7]: 0.9 mL/min/kg; Vd [8]: 0.276 L/kg |
